Data set [1] concerns Mx1 RNA in murine L929 cells. As to the kind of experiment: Mx1 RNA induction in vitro in L929 cells (TaqMan RT-PCR). It is filed as cell-based. As for the experimental part: FIG. 5 illustrates Mx1 RNA induction in vitro (in L929 cells) by mIFN-β. L929 cells were seeded at 5×10^5 cells in 6 well plates and stimulated with increasing amounts of purified recombinant mIFN-β protein. Four hours after treatment the cells were harvested, RNA isolated, and Mx1 RNA quantitated by TaqMan analysis. Mx1 RNA expression is plotted as the fold increase relative to GAPDH RNA.
A quantitative PCR/RT-PCR assay was developed to quantitate the levels of Mx1 mRNA in murine PBMC's. Specifically, peripheral blood mononuclear cells (PBMCs) were isolated from mice treated with either mIFN-β protein or following gene-based delivery of the mIFN-β gene. Blood samples obtained from treated mice were centrifuged on a ficoll cushion for 25 minutes at 2,000 rpm. Purified PBMCs were pelleted and RNA for the Mx1 assay was purified using the “RNAeasy” mini extraction kit from Qiagen. The RNA was stored in H2O at −80° C. Mx1 RT-PCR was performed using TaqMan® chemistry and analysis was done on the Applied Biosystems (ABI) PRISM® 7700 Sequence Detection instrument. For reverse transcription of the RNA and amplification of cDNA, the “One-step TaqMan® RNA” kit from ABI was used. […] The samples were analyzed with an Mx1-specific probe/primer combination. Mx1 expression was normalized to GAPDH expression measured in parallel using a standard assay from ABI. […]
For orientation: In qPCR the cycle at which signal appears reflects the starting amount.

Data set [2] has as its system Mx1 RNA. As to the kind of experiment: Mx1 RNA induction in PBMCs after bolus injection of mIFN-β protein. The class given is in vivo, C57BL/6 mice. As for the experimental part:
FIG. 6 illustrates Mx1 RNA induction following i.v. (A) or i.m. injection (B) of mIFN-β protein. C57BL/6 mice were administered 15, 150, or 500 ng of purified recombinant mIFN-β protein (specific activity-2.0×10^8 units/mg) by either i.v. (via tail vein) or i.m. injection (n=3 mice per group). At the specified time points post-injection mice were bled, and RNA was isolated from PBMCs. Mx1 RNA was measured by quantitative RT-PCR. The fold increase in Mx1 RNA is expressed relative to GAPDH values measured in the same samples. The controls include naive mice (N), and mice injected with the vehicle buffer only followed by Mx1 analysis at 2 hours (V2 h) or 4 h (V4 h) post-injection. Each column represents the mean value +/− standard deviation.
A quantitative PCR/RT-PCR assay was developed to quantitate the levels of Mx1 mRNA in murine PBMC's. Specifically, peripheral blood mononuclear cells (PBMCs) were isolated from mice treated with either mIFN-β protein or following gene-based delivery of the mIFN-β gene. Blood samples obtained from treated mice were centrifuged on a ficoll cushion for 25 minutes at 2,000 rpm. Purified PBMCs were pelleted and RNA for the Mx1 assay was purified using the “RNAeasy” mini extraction kit from Qiagen. The RNA was stored in H2O at −80° C. Mx1 RT-PCR was performed using TaqMan® chemistry and analysis was done on the Applied Biosystems (ABI) PRISM® 7700 Sequence Detection instrument. For reverse transcription of the RNA and amplification of cDNA, the “One-step TaqMan® RNA” kit from ABI was used. RNA was reverse transcribed for 30 minutes at 48° C. and the amplification was done in 40 cycles with a denaturation step at 95° C. for 30 seconds, and an annealing/elongation step at 60° C. for 1 minute. The samples were analyzed with an Mx1-specific probe/primer combination. Mx1 expression was normalized to GAPDH expression measured in parallel using a standard assay from ABI.
B. Bolus Injection of mIFN-β Protein Induces Transient Biomarker Response In Vivo: The biomarker response after bolus injection of purified recombinant mIFN-β was measured in these studies. […] The highest Mx1 expression levels were measured 2 hours after injection. […] At the 500 ng dose there was a diminished level of Mx1 RNA induction. This saturating effect has been observed in other studies in which high IFN-β levels lead to an apparent down-regulation of the bioresponse, perhaps due to down regulation of the IFN type I receptor (see e.g., Mager, D E and Jusko, W J (2002) Pharm Res 19:1537-43). Mx1 RNA expression in the i.v. injected mice also peaked at approximately 2 hours post-injection and dropped rapidly thereafter.
This is the first time that the expression of Mx1 RNA has been used as a biomarker to follow the activity of mIFN-β in mice. […] However, the upregulation is short term and rapidly drops from high expression levels to background within 12-24 hours.

The subject of data set [3] is IP-10. Kind of data set: IP-10 plasma level after bolus mIFN-β protein (ELISA). The class given is in vivo, C57BL/6 mice. As for the experimental part:
C57BL/6 mice were administered 15, 150, or 500 ng of purified recombinant mIFN-β protein (specific activity=2.0×10^8 units/mg) by either i.v. (via tail vein) or i.m. injection (n=3 mice per group). The mice were bled at 2, 4, 6, 12, 24, and 48 hours post-injection, and the plasma levels of IP-10 and JE were measured by ELISA (R&D Systems).
Background: In an ELISA, binding on a coated surface is turned into a signal by an enzyme label.

A short description of data set [4]: Luciferase reporter gene assay for activity of purified mIFN-β protein. The class given is cell-based. As for the experimental part: Specifically, the gene encoding mIFN-β was cloned into a pCEP4 expression vector (Invitrogen). The expression plasmid encoding mIFN-β was transiently transfected into 293E cells (Edge Biosystems) using X-tremeGene Ro-1539 Transfection Reagent (Roche). Murine IFN-β protein was purified from the medium by ion-exchange chromatography and by hydrophobic-interaction chromatography. The product was sialyzed and concentrated against dilution buffer (50 mM sodium acetate, pH 5.5, 150 mM sodium chloride, and 5% polypropylene glycol) and sterile filtered. Aliquots of the purified protein were stored at −80° C. The activity of the purified protein was assessed using a luciferase reporter gene assay (Hardy et al. (2001) Blood 97:473-482), using a commercial mIFN-β reference standard from Access Biomedical (San Diego, Calif.). The specific activity of the purified protein was 2×10^8 units/mg.
The positive control used for this study was Prednisolone, 2.5 mg/kg, (Sigma, St. Louis) administered by IP injection twice daily, beginning on day 1, until the end of the study. For mIFN-β protein delivery, the mice were given SC injections of purified recombinant mIFN-β protein every other day, starting on day 1 of the study (100,000 or 300,000 IU per animal per injection in 100 ul vehicle buffer). […]

For data set [5], the system named is acute EAE in SJL mice. Kind of data set: Mouse acute EAE model, gene-based delivery of mIFN-β. The class given is in vivo. The conditions noted are these: 100,000 Units s.c. every other day.

As to “mIFN-β: purified recombinant murine interferon-beta protein expressed in 293E cells”, in data set [1], the “increase in the level of Mx1 RNA” value came out at 100 fold. The “EC50 of Mx1 RNA induction” value in data set [1] (4 hours treatment) was “approximately 50 pg/ml”. Besides, the “induction of Mx1 RNA expression relative to vehicle injected mice” value in data set [2] (15, 150 or 500 ng, i.v. or i.m.) is 25- to 50 fold. The “time within which Mx1 upregulation drops to background” value in data set [2] (bolus protein) lay in the range of 12 to 24 h. Besides, in data set [2] (i.m.), the “time beyond which no Mx1 RNA levels above background were detected” value is no more than 12 h. Besides, in data set [2] (i.v.), the “dose giving the highest Mx1 induction” value is listed as 150 ng and the “time of peak Mx1 RNA expression post-injection” value is “approximately 2 hours”. Moreover, in data set [2] (i.v. or i.m.), the “time of highest Mx1 expression levels after injection” value was found to be 2 h. Also, the “time by which plasma IP-10 dropped to background” value in data set [3] (each of three doses) is no more than 24 h. The “increase of IP-10 levels” value in data set [3] (high dose delivered i.v.) is recorded as 3000 fold. The “time of strong induction of IP-10 after administration” value in data set [3] (i.v. or i.m.) was found to be 2 h. Moreover, in data set [4], the “specific activity of the purified protein” value is listed as 2×10^8 units/mg. Besides, the “clinical scores compared to vehicle control” value in data set [5] was “significantly decreased clinical scores”.

Values taken from patent US20070179113A1, “GM-CSF gene therapy for Crohn's disease using an improved regulated expression system” (Schering Aktiengesellachaft, priority 2005, published 2007).
